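Following 48 hours of exposure in 96-well plates, responses at five concentrations were used to interpolate endpoints linearly. GI50 is the concentration that inhibits growth by half.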 The source made the active and inactive calls. Rule as the data show it: active = GI50 up to about 1.1 µM and inactive = higher.
Key:
Experiment in all cases: NCI anticancer screen, dose series, 48 h
Malme-3M = test system: Malme-3M
SK-MEL-2 = test system: SK-MEL-2
OVCAR-8 = test system: OVCAR-8
CAKI-1 = test system: CAKI-1
RXF 393 = test system: RXF 393
U-251 = test system: U-251
CCRF-CEM = test system: CCRF-CEM
MOLT-4 = test system: MOLT-4
HOP-62 = test system: HOP-62
LOX IMVI = test system: LOX IMVI
SNB-75 = test system: SNB-75
SN12C = test system: SN12C
SK-MEL-5 = test system: SK-MEL-5
EKVX = test system: EKVX

Measured: GI50

Cc1ccc(S(=O)(=O)N/N=C/C(C)C)cc1
inactive: Malme-3M > 100 µM | SK-MEL-2 > 100 µM | OVCAR-8 > 100 µM | CAKI-1 > 100 µM | RXF 393 > 100 µM | U-251 > 100 µM | CCRF-CEM > 100 µM | MOLT-4 > 100 µM | HOP-62 > 100 µM | LOX IMVI > 100 µM | SNB-75 70.6 µM | SN12C > 100 µM | SK-MEL-5 > 100 µM | EKVX > 100 µM

O=C(Nc1nnc(S)[nH]1)C(=O)C(C(=O)c1ccc2ccccc2c1)C1OC(=O)c2ccccc21 (stereo not given)
inactive: Malme-3M 31 µM | SK-MEL-2 23 µM | OVCAR-8 11.9 µM | CAKI-1 30.3 µM | RXF 393 10.6 µM | U-251 8.15 µM | CCRF-CEM 15.5 µM | MOLT-4 3.78 µM | HOP-62 14.7 µM | LOX IMVI 17.8 µM | SNB-75 13.8 µM | SN12C 18.2 µM | SK-MEL-5 18.1 µM | EKVX 39.7 µM

C/C(=C\CC[C@]1(C)OC(C)(C)OC1CC/C(C)=C/CO[Si](c1ccccc1)(c1ccccc1)C(C)(C)C)CC/C=C/CO[Si](C)(C)C(C)(C)C (stereo not given in full)
inactive: Malme-3M > 100 µM | SK-MEL-2 > 100 µM | OVCAR-8 > 100 µM | CAKI-1 > 100 µM | RXF 393 > 100 µM | U-251 > 100 µM | CCRF-CEM > 100 µM | MOLT-4 > 100 µM | HOP-62 > 100 µM | LOX IMVI > 100 µM | SNB-75 > 100 µM | SN12C > 100 µM | SK-MEL-5 > 100 µM | EKVX > 100 µM

Cc1cc(Cl)ccc1C1OC(=O)c2c1ccc1ccccc21 (stereo not given)
inactive: Malme-3M > 100 µM | SK-MEL-2 > 100 µM | OVCAR-8 > 100 µM | CAKI-1 > 100 µM | U-251 > 100 µM | CCRF-CEM > 100 µM | MOLT-4 > 100 µM | HOP-62 > 100 µM | LOX IMVI > 100 µM | SNB-75 29.9 µM | SN12C > 100 µM | SK-MEL-5 58.2 µM | EKVX > 100 µM

c1cnc2c3[nH]cc4[nH]c5ccccc5c4c-3nc2c1
inactive: Malme-3M 28.4 µM | SK-MEL-2 30.7 µM | OVCAR-8 45.1 µM | CAKI-1 64.1 µM | RXF 393 93.3 µM | U-251 75.3 µM | CCRF-CEM 24.2 µM | MOLT-4 22.7 µM | HOP-62 40.4 µM | LOX IMVI 52.5 µM | SNB-75 51.9 µM | SN12C > 100 µM | SK-MEL-5 > 100 µM | EKVX > 100 µM

O=C1/C(=N\O)C2CCC1C2 (stereo not given)
inactive: Malme-3M > 100 µM | SK-MEL-2 > 100 µM | OVCAR-8 > 100 µM | CAKI-1 > 100 µM | RXF 393 > 100 µM | U-251 > 100 µM | CCRF-CEM > 100 µM | MOLT-4 > 100 µM | HOP-62 > 100 µM | LOX IMVI > 100 µM | SNB-75 > 100 µM | SN12C > 100 µM | SK-MEL-5 > 100 µM | EKVX > 100 µM

Cc1cc(Cl)ccc1NC(=O)C(=O)Cc1nc2ccccc2o1
inactive: Malme-3M > 100 µM | SK-MEL-2 > 100 µM | OVCAR-8 > 100 µM | CAKI-1 > 100 µM | RXF 393 > 100 µM | U-251 > 100 µM | CCRF-CEM > 100 µM | MOLT-4 > 100 µM | HOP-62 > 100 µM | LOX IMVI > 100 µM | SNB-75 > 100 µM | SN12C > 100 µM | SK-MEL-5 > 100 µM | EKVX > 100 µM

COc1ccc2c(c1)OC[C@@H]1c3cc4c(cc3O[C@H]21)OCO4
inactive: Malme-3M > 100 µM | SK-MEL-2 > 100 µM | OVCAR-8 > 100 µM | CAKI-1 58.5 µM | RXF 393 > 100 µM | U-251 > 100 µM | CCRF-CEM > 100 µM | MOLT-4 > 100 µM | HOP-62 > 100 µM | LOX IMVI > 100 µM | SNB-75 11.6 µM | SK-MEL-5 > 100 µM | EKVX > 100 µM

— ChEMBL document CHEMBL1201862, “PubChem BioAssay data set” (2004)
